Measured values: patent US12486270B2, “Receptor tyrosine kinase inhibitors for treatment of protein kinase modulation-responsive disease or disorder” (THE UNITED STATES OF AMERICA, as represented by the …, priority 2019, dated 2025)
One block for each compound: values may come before it.

Assays:
[1] = target: T1, EphA2 (Homo sapiens (Human), UniProt P29317); assay: Binding affinity to EphA2 by microscale thermophoresis (MST); details: for Kd: towards EphA2
From the text: The binding affinities of the compounds to EphA2 were investigated by microscale thermophoresis (MST) (M. Jerabek-Willemsen et al., J. Mol. Struct. 2014, 1077, 101-113).

[2] = tested on: LC3B; assay: LC3B autophagy marker by immunoblotting in HT-29 cells; assay type: cell-based, human; details: for LC3B accumulation in cells treated with 1 μM NVP or NVP-Iso: spautin 5 μM, 3-MA 5 mM, chloroquine 10 μM
Method: Western blotting. Protein lysates were separated by SDS-PAGE and then transferred to a nitrocellulose membrane. After blocking, membranes were incubated overnight with antibodies to LC3 (rabbit Monoclonal antibody, Cell Signaling).

[3] = tested on: HT-29 cells; assay: HT-29 cell proliferation (3H-thymidine incorporation); assay type: cell-based, human; details: co-treatment with autophagy inhibitor, 72 hours
[4] = tested on: LC3B; assay: LC3B accumulation in SW620 cells; assay type: cell-based, human; details: pre-treatment 4 hours; spautin 5 μM, 3-MA 5 mM
Method: Western blotting. Protein lysates were separated by SDS-PAGE and then transferred to a nitrocellulose membrane. After blocking, membranes were incubated overnight with antibodies to LC3 (rabbit Monoclonal antibody, Cell Signaling). After washing with TBS-T (TBS with 0.05 Tween-20), membranes were incubated with the HRP (Horseradish peroxidase)-linked secondary antibody (IgG donkey anti-rabbit IgG (NA934) (GE LifeSciences, Marlborough, MA). Blots were developed using ECL prime (GE LifeSciences, RPN2232) and digitally captured on an LAS4000 (GE LifeSciences). After stripping, the membrane was re-probed with a mouse monoclonal antibody to GAPDH (Santa Cruz) followed by a secondary IgG sheep anti-mouse IgG (NA931). Western blot bands were quantified using Fiji (Schindelin et al., 2012).

[5] = target: T1, EphA2; assay: Endogenous EphA2 tyrosine phosphorylation by ELISA in RKO cell lysates; assay type: cell-based
Method: (§1) ELISA. ELISA plates (ThermoFisher Scientific, Immulon 4HBX, 3855) were coated overnight at 4° C. with capture antibody 75 ng/well in PBS, and blocked with 5% BSA (Sigma-Aldrich, St. Louis, MO) in PBS for two hours at room temperature. Capture antibodies for EphB4 was goat polyclonal antibody (R&D Systems AF3038); for EphA2 was goat polyclonal antibody (R&D Systems AF3035); 10 ug of cell lysate was applied to the ELISA well for two hours at room temperature. The amount of tyrosine phosphorylation was measured with pTyr-HRP antibody (R&D Systems, HAM1676). The ELISA was developed with 3,3′,5,5′-Tetramethylbenzidine (TMB) (ThermoFisher Scientific, 7588927) for 15 minutes and stopped with 1M H2SO4 (Sigma-Aldrich, 258105). Absorbance at 450 nm was measured using POLARstar Optima plate reader (BMG Labtech, Cary, NC). All conditions were tested in duplicate. pEphB2 was measured by ELISA (Ray Biotech, PEL-EphB2-Y) according to the manufacturer's recommendations.

[6] = target: EphB4 (Homo sapiens (Human), UniProt P54760); assay: Endogenous EphB4 tyrosine phosphorylation by ELISA in HT29 cell lysates; assay type: cell-based
Sequence of EphB4 (P54760 16-987): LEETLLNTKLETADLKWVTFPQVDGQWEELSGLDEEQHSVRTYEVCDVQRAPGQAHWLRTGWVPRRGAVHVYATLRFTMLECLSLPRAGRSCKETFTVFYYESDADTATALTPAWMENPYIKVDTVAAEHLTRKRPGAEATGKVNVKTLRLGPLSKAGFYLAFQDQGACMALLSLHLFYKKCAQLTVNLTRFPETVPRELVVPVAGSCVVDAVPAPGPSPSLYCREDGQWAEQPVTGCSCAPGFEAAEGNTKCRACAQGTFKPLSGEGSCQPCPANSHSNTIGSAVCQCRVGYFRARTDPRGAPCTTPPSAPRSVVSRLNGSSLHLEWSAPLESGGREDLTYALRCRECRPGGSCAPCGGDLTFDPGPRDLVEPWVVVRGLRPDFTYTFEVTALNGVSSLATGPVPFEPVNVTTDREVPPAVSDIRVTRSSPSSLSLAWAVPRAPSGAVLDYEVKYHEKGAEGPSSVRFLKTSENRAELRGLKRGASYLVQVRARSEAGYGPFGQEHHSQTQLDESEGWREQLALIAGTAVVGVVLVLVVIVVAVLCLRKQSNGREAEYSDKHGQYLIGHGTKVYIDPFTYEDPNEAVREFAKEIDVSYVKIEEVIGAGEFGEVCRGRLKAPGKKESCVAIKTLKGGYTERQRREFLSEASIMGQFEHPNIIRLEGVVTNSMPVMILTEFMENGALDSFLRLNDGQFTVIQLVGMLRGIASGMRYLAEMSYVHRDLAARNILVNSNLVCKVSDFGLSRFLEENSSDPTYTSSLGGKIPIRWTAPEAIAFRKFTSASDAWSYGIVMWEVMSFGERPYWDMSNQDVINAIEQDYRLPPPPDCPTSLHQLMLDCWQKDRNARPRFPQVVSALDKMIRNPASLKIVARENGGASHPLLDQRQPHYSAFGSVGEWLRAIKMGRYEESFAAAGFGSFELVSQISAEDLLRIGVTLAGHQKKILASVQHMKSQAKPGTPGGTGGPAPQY
Method: as §1

[7] = tested on: SW620 cells; assay: Cleaved caspase-3 immunofluorescence microscopy in colorectal cancer cells (SW620); assay type: cell-based, human; details: 72 hours
Method: Cell viability was also measured by detection of cell-associated cleaved caspase-3. Cells were grown on gelatin-coated glass chamber slides, fixed in 4% paraformaldehyde, immune-stained with rabbit monoclonal antibody to cleaved Caspase 3 (1:100 Cell Signaling Technology) followed by Alexa Fluor 488-conjugated anti-rabbit IgG (1:400 Invitrogen) and mounted with Vectastain containing DAPI (Vector Laboratories). The slides were imaged through a Zeiss LSM780 confocal microscope. Image quantification (cleaved Caspase-3^+ nucleiltotal nuclei) was performed by CellProfiler software.

[8] = target: EphB2 (Homo sapiens (Human), UniProt P29323); assay: Endogenous EphB2 tyrosine phosphorylation by ELISA in Colo-205 cell lysates; assay type: cell-based
Sequence of EphB2 (P29323 19-1055): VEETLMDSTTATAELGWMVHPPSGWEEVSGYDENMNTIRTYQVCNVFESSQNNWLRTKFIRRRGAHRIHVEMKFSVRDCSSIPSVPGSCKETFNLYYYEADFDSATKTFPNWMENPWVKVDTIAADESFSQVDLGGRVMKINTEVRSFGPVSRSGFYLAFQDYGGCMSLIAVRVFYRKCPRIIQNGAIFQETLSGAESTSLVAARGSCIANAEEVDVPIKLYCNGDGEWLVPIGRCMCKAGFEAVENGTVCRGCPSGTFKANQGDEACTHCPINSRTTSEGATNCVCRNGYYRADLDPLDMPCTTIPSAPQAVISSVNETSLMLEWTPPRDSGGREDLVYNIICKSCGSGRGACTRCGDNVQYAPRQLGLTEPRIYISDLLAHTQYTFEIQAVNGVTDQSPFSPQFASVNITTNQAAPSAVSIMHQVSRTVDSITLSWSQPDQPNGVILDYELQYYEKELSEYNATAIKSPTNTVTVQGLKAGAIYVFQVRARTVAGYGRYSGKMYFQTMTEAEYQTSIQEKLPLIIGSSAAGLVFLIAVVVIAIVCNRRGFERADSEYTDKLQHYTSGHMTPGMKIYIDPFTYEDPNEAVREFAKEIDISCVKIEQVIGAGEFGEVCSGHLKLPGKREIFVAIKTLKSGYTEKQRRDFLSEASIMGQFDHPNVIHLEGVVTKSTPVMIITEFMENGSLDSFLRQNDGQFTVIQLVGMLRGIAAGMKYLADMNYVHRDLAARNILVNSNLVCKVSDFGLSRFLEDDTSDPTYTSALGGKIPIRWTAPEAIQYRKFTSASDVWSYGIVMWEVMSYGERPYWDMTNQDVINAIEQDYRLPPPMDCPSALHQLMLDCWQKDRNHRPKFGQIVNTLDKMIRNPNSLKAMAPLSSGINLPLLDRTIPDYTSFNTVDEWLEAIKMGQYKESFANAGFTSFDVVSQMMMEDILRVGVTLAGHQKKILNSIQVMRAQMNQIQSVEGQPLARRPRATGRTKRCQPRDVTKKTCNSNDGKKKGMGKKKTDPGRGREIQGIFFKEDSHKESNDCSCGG
Method: as §1

[9] = tested on: SW620; assay: Cell cycle analysis by flow cytometry in colorectal cancer cells (SW620); assay type: cell-based, human; details: 72 hours; compared to control and NVP/NVP-Iso
Method: Cell cycle was assessed by flow cytometry. Adherent cells were harvested, washed with PBS and fixed for 30 minutes in cold 70% ethanol at 4° C. Cells were washed twice with PBS, treated with 2.5 μg/mL RNaseA (ThermoFisher, 12091039) for 30 minutes at room temperature, and then stained with 10 μg propidium iodide for 15 minutes prior to analysis performed on FACS Canton (BD Biosciences; San Jose, CA) and cell cycled analyzed (FloJo software).

T1 sequence (P29317 24-976): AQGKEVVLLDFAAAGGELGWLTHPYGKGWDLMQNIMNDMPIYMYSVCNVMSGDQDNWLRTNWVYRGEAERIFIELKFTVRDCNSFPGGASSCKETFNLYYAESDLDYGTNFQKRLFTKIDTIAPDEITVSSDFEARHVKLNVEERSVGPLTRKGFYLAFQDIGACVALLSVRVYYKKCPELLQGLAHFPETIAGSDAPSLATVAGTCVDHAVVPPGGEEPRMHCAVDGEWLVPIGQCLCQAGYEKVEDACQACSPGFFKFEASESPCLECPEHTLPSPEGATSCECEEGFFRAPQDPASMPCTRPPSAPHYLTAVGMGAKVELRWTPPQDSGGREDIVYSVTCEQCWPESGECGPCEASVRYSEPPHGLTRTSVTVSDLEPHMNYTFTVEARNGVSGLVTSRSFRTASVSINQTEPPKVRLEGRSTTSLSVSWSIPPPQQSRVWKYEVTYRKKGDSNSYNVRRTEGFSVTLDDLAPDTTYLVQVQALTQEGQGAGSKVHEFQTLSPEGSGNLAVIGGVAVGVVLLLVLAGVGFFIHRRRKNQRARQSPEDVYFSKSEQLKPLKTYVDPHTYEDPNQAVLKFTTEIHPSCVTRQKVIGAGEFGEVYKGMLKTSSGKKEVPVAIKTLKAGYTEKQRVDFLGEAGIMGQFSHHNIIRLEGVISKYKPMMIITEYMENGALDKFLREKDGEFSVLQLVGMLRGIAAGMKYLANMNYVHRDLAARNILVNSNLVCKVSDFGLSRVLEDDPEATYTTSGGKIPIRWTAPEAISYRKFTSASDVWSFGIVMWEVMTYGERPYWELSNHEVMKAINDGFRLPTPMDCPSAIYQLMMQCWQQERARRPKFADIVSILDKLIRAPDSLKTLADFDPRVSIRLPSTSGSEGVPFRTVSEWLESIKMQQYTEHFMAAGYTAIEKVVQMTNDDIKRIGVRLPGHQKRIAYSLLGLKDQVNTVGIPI

fold lower binding affinity towards EphA2 ([1]; compared with @1 and @3): 44 fold
Kd [1]: 132 nM
Structure (SMILES): Cc1ccc(C(=O)Nc2cccc(C(F)(F)F)c2)cc1Nc1nc(-c2cnccn2)nc2nn(C)cc12 [@2, 4-Methyl-3-((2-methyl-6-(pyrazin-2-yl)-2H-pyrazolo[3,4-d]pyrimidin-4-yl)amino)-N-(3-(trifluoromethyl)-phenyl)benzamide]

Kd [1]: ~2880 nM
Structure (SMILES): Cc1cc(C(=O)Nc2cccc(C(F)(F)F)c2)ccc1Nc1nc(-c2cnccn2)nc2nn(C)cc12 [@7]

reduction of EphA2 phosphorylation ([5]; at 2 μM): marginal reduction
reduction of EphB4 phosphorylation ([6]; at 2 μM): marginal reduction
reduction of EphB2 phosphorylation ([8]; at 2 μM): marginal reduction
Kd [1]: 225 nM
Structure (SMILES): Cc1ccc(C(=O)Nc2cccc(C(F)(F)F)c2)cc1Nc1nc(-c2cccnc2)nc2ncccc12 [@5, 4-Methyl-3-((2-(pyridin-3-yl)pyrido[2,3-d]pyrimidin-4-yl)amino)-N-(3-(trifluoromethyl)phenyl)benzamide]

Kd [1]: 24 nM
Structure (SMILES): Cc1ccc(C(=O)Nc2cccc(C(F)(F)F)c2)cc1Nc1nc(-c2cccnc2)nc(-c2cccnc2)n1 [@6, 3-((4,6-Di(pyridin-3-yl)-1,3,5-triazin-2-yl)amino)-4-methyl-N-(3-(trifluoromethyl)phenyl)benzamide]

Kd [1]: 86 nM
Structure (SMILES): Cc1ccc(C(=O)Nc2cccc(C(F)(F)F)c2)cc1Nc1nc(-c2cccnc2)nc2ccccc12 [@4, 4-Methyl-3-((2-(pyridin-3-yl)quinazolin-4-yl)amino)-N-(3-(trifluoromethyl)phenyl)benzamide]

Further lines, the compound ahead of its results:

Structure (SMILES): Cc1cc(C(=O)Nc2cccc(C(F)(F)F)c2)ccc1Nc1nc(N2CCNCC2)nc(-n2ccnc2)n1 [@11]
Kd [1]: 443 nM

Structure (SMILES): Cc1cc(C(=O)Nc2cccc(C(F)(F)F)c2)ccc1Nc1nc(N2CCCC2)nc(-n2ccnc2)n1 [@9]
Kd [1]: 34 nM

Structure (SMILES): Cn1cnc(N)c2ncnc1-2 [3-Methyladenine]
LC3B accumulation in cells treated with 1 μM NVP or NVP-Iso [2]: reduced accumulation of LC3B
anti-proliferative effects of NVP and NVP-Iso in colorectal cancer cells [3]: mitigated the anti-proliferative
LC3B accumulation induced by NVP and NVP-Iso in SW620 cells [4]: reduces this LC3B accumulation

Structure (SMILES): Cc1cc(C(=O)Nc2cccc(C(F)(F)F)c2)ccc1Nc1nc(N2CC[C@H](O)C2)nc(-n2ccnc2)n1 [@12]
Kd [1]: 132 nM

Structure (SMILES): Cc1ccc(C(=O)Nc2cccc(C(F)(F)F)c2)cc1Nc1nc(-c2cncnc2)nc2c1cnn2C [@3, 4-Methyl-3-((1-methyl-6-(pyrimidin-5-yl)-1H-pyrazolo[3,4-d]pyrimidin-4-yl)amino)-N-(3-(trifluoromethyl)phenyl)benzamide]
induction of autophagosome marker LC3B (immunoblotting) ([2]; 72-hour incubation): failure
inhibitory activity for p-EphA2 compared to NVP ([5]; four hours treatment): comparable or only slightly reduced inhibitory activity
inhibitory activity for p-EphB4 compared to NVP ([6]; four hours treatment): comparable or only slightly reduced inhibitory activity
cleaved caspase-3 detection in treated cells [7]: only in a minority of cells
inhibitory activity for p-EphB2 compared to NVP ([8]; four hours treatment): comparable or only slightly reduced inhibitory activity
distribution of cells within the cell cycle [9]: marked reduction of the proportion of cells within the G2M phase

Structure (SMILES): Cc1ccc(C(=O)Nc2cccc(Cl)c2)cc1Nc1nc(N2CC[C@H](O)C2)nc(-n2ccnc2)n1 [@13, (S)-N-(3-chlorophenyl)-3-((4-(3-hydroxypyrrolidin-1-yl)-6-(1H-imidazol-1-yl)-1,3,5-triazin-2-yl)amino)-4-methylbenzamide]
Kd [1]: 97 nM

Structure (SMILES): CCN(CC)CCCC(C)Nc1ccnc2cc(Cl)ccc12 (centres unmarked) [chloroquine, Chloroquine]
LC3B accumulation in cells treated with 1 μM NVP or NVP-Iso [2]: enhanced the accumulation of LC3B
